1 molecule from patent publication US20250066371A1, “FLUOROALKOXYALKYLENE-DIHYDROIMIDAZO[5,1-D]TETRAZINONE COMPOUNDS AND RELATED COMPOUNDS AND THEIR USE IN TREATING MEDICAL CONDITIONS” (priority 2023, published 2025) can be followed below.

Data set [1] deals with LN229 gliobastoma cells MGMT−/MMR+. The data set can be described thus: Anti-cancer assay, isogenic LN229 cells, nuclei count (Examples 43, 46). The following applies: Homo sapiens, LN-229; LN229 MGMT−/MMR+; 120 hours; read-out: MGMT− MMR+ Activity. The class given is cell-based. An excerpt: (§1) Cytotoxicity of the compounds may be measured in short-term cell viability assays against four isogenic LN229 glioblastoma cell lines engineered to be proficient or deficient in MGMT and/or MMR activity by using short hairpin RNAs (shRNAs) targeting MSH2. This approach allows for determination of the relationship between MGMT status, MMR status, and compound activity. LN229 cells are maintained in Dulbecco's Modified Eagle Medium (DMEM) supplemented with 10% fetal bovine serum, 1% Penicillin/Streptomycin, and 0.1% Fungin. DAY 0: Cells are plated into sterile 96-well plates (Corning Costar 96-well) at a concentration of 500 cells/well using a Multichannel pipettor. Then, assay plates are incubated overnight in a 37° C. 5% CO2 incubator. DAY 1: Compounds are prepared as 50 mM stocks in dimethyl sulfoxide (DMSO) and stored protected from light at room temperature (RT) until use. Prior to compound addition, a two-fold serial dilution of compound stock solutions is performed in DMSO from 30 mM to 0.117 mM in a 96-well Master plate. Vehicle control wells contain DMSO. 97 μL of media is added to each well of a new 96-well plate (Daughter plate) and 3 μL of drug solution from Master plate is added to corresponding wells in the Daughter plate resulting in a 3× plate. Three replicate dilution curves of each compound are run on each assay plate. The final concentration of compounds ranges from 300 μM to 1.171 μM (9-point, 2-fold dilution dose response curve), and the final DMSO concentration is 1%.
(§2) Assay plates are incubated for 120 hours at 37° C. in a humidified 5% CO2 incubator. DAY 5: Following incubation, cells are fixed with 4% paraformaldehyde and stained with Hoechst dye for nuclei visualization. Fixation, staining and washing is performed by using a Thermo Scientific Multidrop Combi. Images are acquired on a BioTek Cytation 5 Cell Imaging Multimode Reader and quantified using Cell Profiler image analysis software. Raw cell count data for test compounds are normalized to percent viability relative to the DMSO vehicle control.
(§3) Isogenic LN229 gliobastoma cells were maintained in Dulbecco's Modified Eagle Medium (DMEM) supplemented with 10% fetal bovine serum, 1% Penicillin/Streptomycin, and 0.1% Fungin. DAY 0: Cells were plated into sterile 96-well plates (Corning Costar 96-well) at a concentration of 500 cells/well using a Multichannel pipettor. Then, assay plates were incubated overnight in a 37° C. 5% CO2 incubator. DAY 1: Compounds were prepared as 50 mM stocks in dimethyl sulfoxide (DMSO) and stored protected from light at room temperature (RT) until use. Prior to compound addition, a two-fold serial dilution of compound stock solutions was performed in DMSO from 30 mM to 0.117 mM in a 96-well Master plate. Vehicle control wells contained DMSO. 97 μL of media was added to each well of a new 96-well plate (Daughter plate) and 3 μL of drug solution from Master plate was added to corresponding wells in the Daughter plate resulting in a 3× plate. Three replicate dilution curves of each compound were run on each assay plate. The final concentration of compounds ranged from 300 μM to 1.171 μM (9-point, 2-fold dilution dose response curve), and the final DMSO concentration was 1%.
(§4) Assay plates were incubated for 120 hours at 37° C. in a humidified 5% CO2 incubator. DAY 5: Following incubation, cells were fixed with 4% paraformaldehyde and stained with Hoechst dye for nuclei visualization. Fixation, staining and washing was performed by using a Thermo Scientific Multidrop Combi. Images were acquired on a BioTek Cytation 5 Cell Imaging Multimode Reader and quantified using Cell Profiler image analysis software. Raw cell count data for test compounds were normalized to percent viability relative to the DMSO vehicle control. […]

The subject of data set [2] is LN229 gliobastoma cells MGMT−/MMR−. The description is as above. The class given is cell-based. The settings on record: Homo sapiens, LN-229; LN229 MGMT−/MMR−; 120 hours; read-out: MGMT− MMR− Activity.
From the text: as §1, §2, §3, §4

Data set [3] relates to 885 barcoded cancer cell lines. Nature of the data set: PRISM multiplexed cell-viability assay (Example 45). Format: cell-based. The following applies: 5-day treatment; for Log 2 fold change in abundance of the cells: 66.7 μM. An excerpt: The multiplexed cell-viability platform, PRISM (profiling relative inhibition simultaneously in mixtures), enabled multiplexed screening of Compound I-1 across 900 barcoded cell lines representing more than 45 lineages. Details of the assay technique are described in Yu, C., et al. “High-throughput identification of genotype-specific cancer vulnerabilities in mixtures of barcoded tumor cell lines,” Nat. Biotechnol. 2016, Vol. 34, p. 419-423; and Corsello, S. M., et al. “Discovering the anti-cancer potential of non-oncology drugs by systematic viability profiling,” Nat. Cancer, 2020, Vol. 1, p. 235-248; each of which are hereby incorporated by reference in their entirety.
Briefly, unique oligonucleotide barcodes are stably transduced into individual cancer cell lines. Following barcode transduction, individual cell lines are pooled together in groups of 20-25 based on growth rate similarity, then thawed into 384-well assay-ready plates, and treated with test compound. After 5 days of incubation, isolated mRNA is used to quantify transcribed barcode abundance of each individual cancer cell line to calculate relative viability (Log 2 fold change, “LFC”).
Compound I-1 was screened in the PRISM assay at 8-point dose (3-fold dilution) with a 5-day treatment with 885 cancer cell lines passing QC. Two PRISM cell line collections were used in the assay: PR500 (including only adherent cell lines) and PR300+(including adherent and suspension cell lines). Benchmark compounds (included in the validation compounds) were also tested at doses to ensure high data quality. All compounds were run in triplicate, and each plate contained positive (Bortezomib, 20 μM) and negative (DMSO) controls.

Data set [4] relates to LN229 gliobastoma cells MGMT−/MMR+. The data set can be described thus: Anti-cancer assay, isogenic LN229 cells, nuclei count (Examples 43, 46). Format: cell-based. The settings on record: Homo sapiens, LN-229; MGMT negative/MMR positive; Example 46, maximum concentration 200 μM; read-out: IC50 for causing the death of LN229 cells.
For the next data set, the system named is rats. Nature of the data set: Animal model toxicity testing in rats. The settings on record: tested doses exceeded those at which A1 caused 100% mortality.
The subject of a further data set is dogs. Nature of the data set: Animal model toxicity testing in dogs. The following applies: tested doses exceeded those at which A1 caused 100% mortality.

Read-outs that look alike come from different tables or passages of the source. Some results are limits rather than exact numbers.

Consider `NC(=O)c1ncn2c(=O)n(CCOC(F)(F)F)nnc12` [Compound I-1, 4-Oxo-3-(2-(trifluoromethoxy)ethyl)-3,4-dihydroimidazo[5,1-d][1,2,3,5]tetrazine-8-carboxamide], for which the IC50 in data set [1], in data set [2] and in data set [4] was less than 20 µM in each case. In addition, the “Log 2 fold change in abundance of the cells” value in data set [3] (cell lines of Table 8) is −3.5 to −2.0; in data set [3] (cell lines of Table 9), −2.0 to −1.0; in data set [3] (cell lines of Table 10), −1.0 to −0.5; in data set [3] (cell lines of Table 11) it was −0.5 to −0.001. Further, the anti-cancer effect result in data set [3] (cell lines of Table 12) was “did not appear to provide an anti-cancer effect”. The adverse clinical signs entry in the data set on rats and in the data set with dogs was “no adverse clinical signs were observed” throughout.
